Data from PubChem BioAssay (NCI).
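How tested: cells in 96-well plates exposed to compound for 48 hours at five concentrations. GI50 is the concentration that inhibits growth by half. TGI: total growth inhibition.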

How the values were obtained:
Test in all cases: NCI-60 cell line screen, 48 h
A498 renal = system: A498 renal
A549 NSCLC = system: A549 NSCLC
SF-268 CNS = system: SF-268 CNS
SN12C renal = system: SN12C renal
MCF7 breast = system: MCF7 breast
UACC-62 melanoma = system: UACC-62 melanoma
OVCAR-3 ovarian = system: OVCAR-3 ovarian
T-47D breast = system: T-47D breast
TK-10 renal = system: TK-10 renal
ACHN renal = system: ACHN renal

| Compound | TGI (A498 renal) | TGI (A549 NSCLC) | TGI (SF-268 CNS) | TGI (SN12C renal) | TGI (MCF7 breast) | TGI (UACC-62 melanoma) | TGI (OVCAR-3 ovarian) | TGI (T-47D breast) | TGI (TK-10 renal) | TGI (ACHN renal) | GI50 (A498 renal) | GI50 (T-47D breast) | GI50 (UACC-62 melanoma) | GI50 (ACHN renal) | GI50 (A549 NSCLC) | GI50 (SF-268 CNS) | GI50 (SN12C renal) | GI50 (TK-10 renal) | GI50 (MCF7 breast) | GI50 (OVCAR-3 ovarian) |
| --- | --- | --- | --- | --- | --- | --- | --- | --- | --- | --- | --- | --- | --- | --- | --- | --- | --- | --- | --- | --- |
| CC(C)(C)OC(=O)NC1CCC(C(C)(C)C)CC1 (stereo unspecified) | > 100 µM | > 100 µM | > 100 µM | > 100 µM | > 100 µM | > 100 µM | > 100 µM |  |  |  |  |  |  |  |  |  |  |  |  |  |
| CC(C)(C)c1ccc(/C=N/NC(=O)CSCC(=O)N/N=C/c2ccc(C(C)(C)C)cc2)cc1 | 8.67 µM | 11.6 µM | 10.9 µM | 4.82 µM | 6.05 µM | 32 µM |  | 26.3 µM | 16.6 µM | 13.5 µM |  |  |  |  |  |  |  |  |  |  |
| Nc1nc(Nc2ccccc2)sc1C(=O)c1cccs1 | 38.8 µM | 41.7 µM | 46.6 µM | 38.3 µM | 24.2 µM | 31 µM | > 28.2 µM | > 59.3 µM | 46.8 µM | > 69.8 µM |  |  |  |  |  |  |  |  |  |  |
| O=C(Nc1ccc(Cl)c(Cl)c1)N1N=C2c3ccccc3CCC2C1c1ccc(Cl)cc1 (stereo unspecified) | > 100 µM | > 100 µM | > 100 µM | > 100 µM | > 100 µM | > 100 µM | > 100 µM | > 100 µM | > 100 µM | > 100 µM |  |  |  |  |  |  |  |  |  |  |
| C=CCSSCC=C | > 100 µM | > 100 µM | > 90.5 µM | > 86.9 µM | > 100 µM | > 100 µM | > 100 µM | > 100 µM | > 100 µM | > 100 µM |  |  |  |  |  |  |  |  |  |  |
| O[C@@H]1C[C@H]2N3CC[C@@]2(c2cc4c(cc2C3)OCO4)[C@H]2O[C@@H]12 | > 100 µM | > 100 µM | > 100 µM | > 100 µM | > 100 µM | > 100 µM | > 100 µM |  | > 100 µM | > 100 µM |  |  |  |  |  |  |  |  |  |  |
| C[C@]12CC[C@H](O)CC1=CC[C@@H]1[C@@H]2CC[C@]2(C)C(=N/O)/C(=C/c3ccc([N+](=O)[O-])cc3)C[C@@H]12 | 11.7 µM | 17.7 µM | 24.8 µM | 7.14 µM | 18.2 µM | 28.6 µM | 5.06 µM | 30.5 µM |  | 15.1 µM |  |  |  |  |  |  |  |  |  |  |
| Cn1c2c3ccc(Cl)cc3nc-2c(Cl)c2ccccc21 | 45.1 µM | > 100 µM | 36.3 µM | 34.5 µM | > 100 µM | 50.8 µM | 29.7 µM | > 100 µM | 32.5 µM | 32 µM |  |  |  |  |  |  |  |  |  |  |
| Cc1cc(C)nc(SCCc2cccc[n+]2C)n1 | > 100 µM | > 100 µM | > 100 µM | > 100 µM | > 100 µM | > 100 µM | > 100 µM | > 100 µM | > 100 µM | > 100 µM |  |  |  |  |  |  |  |  |  |  |
| Clc1ccc(-c2ccc(-c3nn4c(CNc5ccccc5)nnc4s3)o2)c(Cl)c1 | > 100 µM | > 100 µM | > 100 µM | > 100 µM |  |  | > 100 µM | > 100 µM | > 100 µM | > 100 µM |  |  |  |  |  |  |  |  |  |  |
| SC1CCCN(Cc2ccccc2)C1 (stereo unspecified) | > 100 µM | > 100 µM | > 100 µM | > 100 µM | 39.4 µM | > 100 µM | > 100 µM | 94.1 µM | > 100 µM | > 100 µM |  |  |  |  |  |  |  |  |  |  |
| COc1cc(S(=O)(=O)Nc2nc(-c3ccc(N4C(=O)/C(=C/c5ccccc5[N+](=O)[O-])N=C4c4ccccc4)cc3)cs2)ccc1Cl | > 100 µM | > 100 µM | > 100 µM | > 100 µM | > 100 µM | 92.8 µM | > 100 µM | > 100 µM | > 100 µM | > 100 µM |  |  |  |  |  |  |  |  |  |  |
| O=C(Oc1ccc(Cl)cc1[N+](=O)[O-])c1ccccc1 | > 100 µM | > 100 µM | > 100 µM | > 100 µM |  | > 100 µM | > 100 µM |  | > 100 µM | > 100 µM |  |  |  |  |  |  |  |  |  |  |
| CC(=O)OCCOc1cc2c([nH]c3ccccc32)c(C)c2cccc1-2 | 26.5 µM | > 32.2 µM | 7.28 µM | 10.9 µM | 15.2 µM | 6.05 µM | 4.97 µM | 5.57 µM | 5.4 µM | 3.35 µM |  |  |  |  |  |  |  |  |  |  |
| O=C1CCCC2C3CC(CN12)C1CCCCN1C3 (stereo unspecified) | > 100 µM | > 100 µM | > 100 µM | > 100 µM | > 100 µM | > 100 µM | > 100 µM | > 100 µM | > 100 µM | > 100 µM |  |  |  |  |  |  |  |  |  |  |
| COC(=O)Nc1nc2ccc(NC(=O)c3cccs3)cc2[nH]1 | 88.7 µM | > 100 µM | > 100 µM | > 100 µM | > 100 µM | > 100 µM | 47.3 µM | 88.1 µM | > 100 µM | > 100 µM |  |  |  |  |  |  |  |  |  |  |
| O=C1C(Cl)C(c2cc3cc(Br)ccc3nc2Cl)N1c1ccc(Cl)cc1 (stereo unspecified) | > 25 µM | > 25 µM | 9.69 µM | 8.8 µM | 7.47 µM | 10.2 µM | 13.8 µM | 23.8 µM | 13.3 µM | 11.2 µM |  |  |  |  |  |  |  |  |  |  |
| CCCC(=O)O.CCCC(=O)O.CCCC(=O)O.CCCC(=O)O.[Rh].[Rh] | 0.325 µM |  |  |  |  | 0.142 µM |  | 0.0985 µM |  | 0.212 µM | 0.151 µM | 0.0312 µM | 0.0343 µM | 0.0451 µM |  |  |  |  |  |  |
| c1ccc(C[N+]23CN4CN(CN(C4)C2)C3)cc1 | > 100 µM | 91.8 µM | 85.8 µM | > 100 µM | 94.3 µM | 32.1 µM | > 100 µM | 87.4 µM | > 100 µM | 87.9 µM |  |  |  |  |  |  |  |  |  |  |
| O=C(COc1ccc(Cl)c(Cl)c1)N(Cc1ccccc1)Cc1ccc[n+](Cc2ccc(Cl)cc2S(=O)(=O)F)c1 | > 100 µM | > 100 µM | > 100 µM | > 100 µM | > 100 µM | > 100 µM | > 100 µM | > 100 µM | > 100 µM | > 100 µM |  |  |  |  |  |  |  |  |  |  |
| CN1CC(CNC(=O)OCc2ccccc2)CC2c3cccc4c3c(cn4C)CC21 (stereo unspecified) | 16 µM | 5.24 µM | 13.4 µM | 11.3 µM | 3.29 µM | 3.17 µM | 7.79 µM | 4.67 µM | 3.67 µM | 5.58 µM | 3.47 µM | 2.26 µM | 1.66 µM | 2.29 µM | 2.22 µM | 3.48 µM | 2.86 µM | 1.92 µM | 1.77 µM | 2.63 µM |
| C=CCNS(=O)(=O)c1ncnc2nc[nH]c12 | > 100 µM | > 100 µM |  | > 100 µM | > 100 µM | > 100 µM | > 100 µM | > 100 µM | > 100 µM | > 100 µM |  |  |  |  |  |  |  |  |  |  |
| COc1c(OC/C=C(\C)CCC=C(C)C)ccc2ccc(=O)oc12 | > 100 µM | > 100 µM | > 100 µM | > 100 µM | > 100 µM | > 100 µM | > 100 µM | > 100 µM | > 100 µM | > 100 µM |  |  |  |  |  |  |  |  |  |  |
| O=C(c1cc2c(c3ccccc13)NCCN=C2C(F)(F)F)C(F)(F)F | 40.3 µM |  | > 100 µM |  | > 100 µM |  | 80.9 µM | > 100 µM | 78 µM | 68.3 µM |  |  |  |  |  |  |  |  |  |  |
| O=C1OC2CC=CC1C2 (stereo unspecified) | > 100 µM | > 100 µM | > 100 µM | > 100 µM | > 100 µM | > 100 µM | > 100 µM |  |  |  |  |  |  |  |  |  |  |  |  |  |
| CC(=O)NNC(=O)C1CCCCN1 (stereo unspecified) | > 100 µM | > 100 µM | > 100 µM | > 100 µM | > 100 µM |  | > 100 µM |  | > 100 µM | > 100 µM |  |  |  |  |  |  |  |  |  |  |
| C=C1C(=O)OC2CC1CCC1(C)OC1CCC(C)=CCCC2(C)O (stereo unspecified) | 3.52 µM | 26.9 µM | 14.2 µM | 11.6 µM | 9.64 µM | 10 µM | 9.3 µM |  |  |  |  |  |  |  |  |  |  |  |  |  |
| CC[C@]12C=CCN3CC[C@@]4(c5cc(Br)c(OC)cc5N(C)[C@H]4[C@@](O)(C(=O)N[C@@H](Cc4ccc(O)cc4)C(=O)OC)[C@@H]1O)[C@@H]32 | 40.8 µM | > 100 µM | 52.4 µM | 37.9 µM | > 100 µM | 33.9 µM | 89.7 µM | > 100 µM | 79.5 µM | > 100 µM |  |  |  |  |  |  |  |  |  |  |
| O=C(/C=C/c1ccccc1)N1CCCCC1 | > 100 µM | > 100 µM | > 100 µM | > 100 µM | > 100 µM | > 100 µM | > 100 µM | > 100 µM | > 100 µM | > 100 µM |  |  |  |  |  |  |  |  |  |  |
